According to ChEMBL document CHEMBL1201862, “PubChem BioAssay data set” (2004):
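In this assay, cells in 96-well plates receive the compound at five concentrations for 48 hours. Endpoints are linearly interpolated between the surrounding concentrations. The concentration for 50% growth inhibition is given as GI50.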 Calls of active or inactive are those of the source. Cut-off read from the data, not from the text of the source: active = GI50 up to about 1.1 µM and inactive = higher.

Legend:
Assay in all cases: DTP human tumour cell line panel, 48 h
CCRF-CEM = tested on: CCRF-CEM
NCI/ADR-RES = tested on: NCI/ADR-RES
CAKI-1 = tested on: CAKI-1
RPMI-8226 = tested on: RPMI-8226
IGROV-1 = tested on: IGROV-1
DU-145 = tested on: DU-145
OVCAR-3 = tested on: OVCAR-3
TK-10 = tested on: TK-10
M14 = tested on: M14
SK-MEL-5 = tested on: SK-MEL-5
UO-31 = tested on: UO-31
LOX IMVI = tested on: LOX IMVI
MOLT-4 = tested on: MOLT-4
NCI-H23 = tested on: NCI-H23
PC-3 = tested on: PC-3
SNB-19 = tested on: SNB-19
Hs-578T = tested on: Hs-578T
SN12C = tested on: SN12C
HCC 2998 = tested on: HCC 2998
NCI-H460 = tested on: NCI-H460

SMILES | GI50 (CCRF-CEM) | GI50 (NCI/ADR-RES) | GI50 (CAKI-1) | GI50 (RPMI-8226) | GI50 (IGROV-1) | GI50 (DU-145) | GI50 (OVCAR-3) | GI50 (TK-10) | GI50 (M14) | GI50 (SK-MEL-5) | GI50 (UO-31) | GI50 (LOX IMVI) | GI50 (MOLT-4) | GI50 (NCI-H23) | GI50 (PC-3) | GI50 (SNB-19) | GI50 (Hs-578T) | GI50 (SN12C) | GI50 (HCC 2998) | GI50 (NCI-H460)
Cc1cc(S(=O)(=O)O)ccc1/N=N/c1ccc(/N=N/c2c(O)ccc3ccccc23)c(C)c1 | 18.1 µM (inactive) | > 100 µM (inactive) | 53.2 µM (inactive) | > 100 µM (inactive) | 54.7 µM (inactive) | > 100 µM (inactive) | 39.4 µM (inactive) | 74 µM (inactive) | > 100 µM (inactive) | > 100 µM (inactive) | 80.4 µM (inactive) | 26.9 µM (inactive) | 49.1 µM (inactive) | 33.2 µM (inactive) | > 100 µM (inactive) | > 100 µM (inactive) | > 100 µM (inactive) | 89.7 µM (inactive) | – | –
C#CCCCC(=O)N(C(=O)C[S+]([O-])CC)c1ccccc1 (stereo not given) | > 100 µM (inactive) | > 100 µM (inactive) | > 100 µM (inactive) | – | > 100 µM (inactive) | > 100 µM (inactive) | > 100 µM (inactive) | > 100 µM (inactive) | > 100 µM (inactive) | > 100 µM (inactive) | > 100 µM (inactive) | > 100 µM (inactive) | > 100 µM (inactive) | > 100 µM (inactive) | > 100 µM (inactive) | > 100 µM (inactive) | > 100 µM (inactive) | > 100 µM (inactive) | > 100 µM (inactive) | > 100 µM (inactive)
CCc1n[nH]c(=O)[nH]1 | > 100 µM (inactive) | > 100 µM (inactive) | > 100 µM (inactive) | – | > 100 µM (inactive) | > 100 µM (inactive) | > 100 µM (inactive) | > 100 µM (inactive) | > 100 µM (inactive) | > 100 µM (inactive) | > 100 µM (inactive) | > 100 µM (inactive) | > 100 µM (inactive) | > 100 µM (inactive) | > 100 µM (inactive) | > 100 µM (inactive) | > 100 µM (inactive) | > 100 µM (inactive) | > 100 µM (inactive) | > 100 µM (inactive)
Cc1cc(O)cc2c1c(=O)c1ccccc1n2C | > 100 µM (inactive) | 68.1 µM (inactive) | > 100 µM (inactive) | > 100 µM (inactive) | > 100 µM (inactive) | > 100 µM (inactive) | > 100 µM (inactive) | 46.9 µM (inactive) | > 100 µM (inactive) | 62.5 µM (inactive) | > 100 µM (inactive) | > 100 µM (inactive) | 55.1 µM (inactive) | 38.9 µM (inactive) | > 100 µM (inactive) | 34.8 µM (inactive) | 37.1 µM (inactive) | > 100 µM (inactive) | – | 5.33 µM (inactive)
O=C(Nc1ccccc1)Oc1ccc(C(=S)Nc2ccc(Br)cc2)cc1 | 8.57 µM (inactive) | 15.3 µM (inactive) | 15.3 µM (inactive) | 36.6 µM (inactive) | 6.43 µM (inactive) | 31.5 µM (inactive) | 18.9 µM (inactive) | – | – | 16 µM (inactive) | – | 11.9 µM (inactive) | 13.4 µM (inactive) | 17.5 µM (inactive) | 22.6 µM (inactive) | – | 22.9 µM (inactive) | – | 21.6 µM (inactive) | 16.9 µM (inactive)
O=C1C[C@@H](Sc2ccccc2)C2(OCCO2)C2ON3CCCC[C@H]3[C@H]12 (stereo not given in full) | 0.92 µM (active) | 5.78 µM (inactive) | 7.71 µM (inactive) | 3.07 µM (inactive) | 5.48 µM (inactive) | 12.1 µM (inactive) | 13 µM (inactive) | 6.34 µM (inactive) | 10.7 µM (inactive) | 7.74 µM (inactive) | 3.75 µM (inactive) | 2.49 µM (inactive) | 0.989 µM (active) | 9.38 µM (inactive) | 7.36 µM (inactive) | 10.5 µM (inactive) | 10.8 µM (inactive) | 3.82 µM (inactive) | – | 9.66 µM (inactive)
Cn1c(-c2ccccc2)cc2c3ccsc3c3ccsc3c21 | – | > 100 µM (inactive) | > 100 µM (inactive) | > 100 µM (inactive) | > 100 µM (inactive) | > 100 µM (inactive) | > 100 µM (inactive) | 21.3 µM (inactive) | > 100 µM (inactive) | > 100 µM (inactive) | > 100 µM (inactive) | > 100 µM (inactive) | 92.7 µM (inactive) | > 100 µM (inactive) | > 100 µM (inactive) | > 100 µM (inactive) | > 100 µM (inactive) | > 100 µM (inactive) | > 100 µM (inactive) | 53.1 µM (inactive)
CC(C)(C)OC(=O)NC(CCCCNC(=O)OCc1ccccc1)C(=O)NCCNc1ccc(NCCNC(=O)C(CCCCNC(=O)OCc2ccccc2)NC(=O)OC(C)(C)C)c2c1C(=O)c1ccccc1C2=O (stereo not given) | – | 19.8 µM (inactive) | > 100 µM (inactive) | 1.02 µM (active) | 29.3 µM (inactive) | > 100 µM (inactive) | > 79.4 µM (inactive) | > 100 µM (inactive) | > 100 µM (inactive) | > 100 µM (inactive) | > 89.7 µM (inactive) | > 90.8 µM (inactive) | > 100 µM (inactive) | 27.5 µM (inactive) | > 100 µM (inactive) | 10.5 µM (inactive) | 4.68 µM (inactive) | > 100 µM (inactive) | 8.67 µM (inactive) | > 100 µM (inactive)
COc1ccc2c(c1)CCN=C2Cc1ccccc1CCCl | 20.7 µM (inactive) | 19.1 µM (inactive) | 22.1 µM (inactive) | 17.6 µM (inactive) | 25.8 µM (inactive) | 50.5 µM (inactive) | 33.9 µM (inactive) | 53.2 µM (inactive) | 19.1 µM (inactive) | 17.5 µM (inactive) | 16.5 µM (inactive) | – | 23.7 µM (inactive) | 20.8 µM (inactive) | 25.8 µM (inactive) | 25.8 µM (inactive) | 62.4 µM (inactive) | 24.3 µM (inactive) | 17.1 µM (inactive) | 15.4 µM (inactive)
CCOC(=O)n1c2ccccc2c(=O)n1CCO | > 100 µM (inactive) | > 100 µM (inactive) | > 100 µM (inactive) | – | > 100 µM (inactive) | > 100 µM (inactive) | > 100 µM (inactive) | > 100 µM (inactive) | > 100 µM (inactive) | > 100 µM (inactive) | > 100 µM (inactive) | – | > 100 µM (inactive) | > 100 µM (inactive) | > 100 µM (inactive) | > 100 µM (inactive) | > 100 µM (inactive) | > 100 µM (inactive) | > 100 µM (inactive) | > 100 µM (inactive)
CN1CCCCC1CCN1CCCCC1 (stereo not given) | – | > 100 µM (inactive) | > 100 µM (inactive) | > 100 µM (inactive) | > 100 µM (inactive) | > 100 µM (inactive) | > 100 µM (inactive) | > 100 µM (inactive) | > 100 µM (inactive) | > 100 µM (inactive) | > 100 µM (inactive) | > 100 µM (inactive) | > 100 µM (inactive) | > 100 µM (inactive) | > 100 µM (inactive) | > 100 µM (inactive) | > 100 µM (inactive) | > 100 µM (inactive) | > 100 µM (inactive) | > 100 µM (inactive)
NC1=NNC2(C(N)=N1)c1ccccc1-c1ccccc12 | – | > 10 µM (inactive) | > 10 µM (inactive) | > 10 µM (inactive) | > 10 µM (inactive) | > 10 µM (inactive) | – | > 10 µM (inactive) | > 10 µM (inactive) | > 10 µM (inactive) | 5.13 µM (inactive) | > 10 µM (inactive) | > 10 µM (inactive) | > 10 µM (inactive) | > 10 µM (inactive) | > 10 µM (inactive) | > 10 µM (inactive) | > 10 µM (inactive) | > 10 µM (inactive) | > 10 µM (inactive)
COc1ccc2cc(C(=O)NCCc3ccccc3)ccc2c1OC | – | 84.3 µM (inactive) | > 100 µM (inactive) | > 100 µM (inactive) | > 100 µM (inactive) | > 100 µM (inactive) | 46.1 µM (inactive) | – | > 100 µM (inactive) | 97.3 µM (inactive) | – | > 100 µM (inactive) | > 100 µM (inactive) | > 100 µM (inactive) | 91.2 µM (inactive) | 68.1 µM (inactive) | 56.4 µM (inactive) | > 100 µM (inactive) | 34.8 µM (inactive) | > 100 µM (inactive)
COc1ccc(N2C(=O)C3c4[nH]c5cc(Cl)ccc5c4C4CCC(C(C)(C)C)CC4C3C2=O)cc1 (stereo not given) | 37.9 µM (inactive) | > 100 µM (inactive) | – | 53.2 µM (inactive) | > 100 µM (inactive) | > 100 µM (inactive) | 67.6 µM (inactive) | > 100 µM (inactive) | > 100 µM (inactive) | > 100 µM (inactive) | 70.5 µM (inactive) | – | 15.6 µM (inactive) | 93.3 µM (inactive) | 29.2 µM (inactive) | > 100 µM (inactive) | 26.2 µM (inactive) | 64.9 µM (inactive) | 44 µM (inactive) | 35.9 µM (inactive)
Cc1c(/N=N/c2ccc(Cl)cc2)c(-c2ccccc2)n(C2OC(CO)C(O)C(O)C2O)c(=S)c1C#N (stereo not given) | 10 µM (inactive) | 13.6 µM (inactive) | 18.1 µM (inactive) | 25.2 µM (inactive) | 15.1 µM (inactive) | 19 µM (inactive) | 18.5 µM (inactive) | 21.2 µM (inactive) | 17.4 µM (inactive) | 13.1 µM (inactive) | 19.8 µM (inactive) | 18.2 µM (inactive) | 8.04 µM (inactive) | 10.7 µM (inactive) | 10.6 µM (inactive) | 12.3 µM (inactive) | 21.5 µM (inactive) | 16.6 µM (inactive) | – | 18.8 µM (inactive)
